Reference: US10195185B2, “3-(1H-imidazo[4,5-C]pyridin-2-yl)-1H-pyrazolo[4,3-B]pyridines and therapeutic uses thereof” (Samumed, LLC, priority 2015, dated 2019)

Tests used:
Assay type in all cases: cell-based
[1] = tested on: SW480 colon cancer cells; assay: Cell viability assay (CellTiter-Blue), four days; details: Homo sapiens, 96 h, CellTiter-Blue cell viability
Experimental: Representative compounds were screened using the following assay procedure to assess the effect on cell viability as described below.
Each compound was dissolved in DMSO as a 10 mM stock and used to prepare compound source plates. Serial dilution (1:3, 8-point dose-response curves from 10 μM to 0.0045 μM) and compound transfer was performed using the ECHO 550 (Labcyte, Sunnyvale, Calif.) into 96-well clear bottom, black-walled plates (Corning-Costar).
Approximately 2×10^3 SW480 colon cancer cells were seeded into each well and allowed to incubate in the presence or absence of compound for four days at 37° C./5% CO2. Eight replicates of DMSO-treated cells served as controls and cells treated with compound were performed in duplicate.
After incubation, 20 μL of CellTiter-Blue (Promega) was added to each well allowed to incubate for approximately 3 hours. This reagent was a buffered solution which contains resazurin, metabolically active cells were able to reduce rezarurin (blue) into resorufin (pink) which was highly fluorescent. This measured fluorescence was used as a readout for cell viability.
After incubation, the plates were read at Ex 560 nm Em 590 nm (Cytation 3, BioTek). Dose-response curves were generated and EC50 concentration values were calculated using non-linear regression curve fit in the GraphPad Prism (San Diego, Calif.) or Dotmatics' Studies Software (Bishops Stortford, UK). For EC50 of >10 μM, the percent inhibition at 10 μM is provided.

[2] = tested on: Wnt activity (Wnt-responsive human Sp5 promoter, TCF/LEF binding sites) in SW480 colon carcinoma cells; assay: Wnt activity screening assay: Sp5-Luc luciferase reporter gene in SW480 cells; details: 10-point dose-response from 10 μM, incubated overnight
Text: The screening assay for Wnt activity is described as follows. Reporter cell lines can be generated by stably transducing cancer cell lines (e.g., colon cancer) or primary cells (e.g., IEC-6 intestinal cells) with a lentiviral construct that includes a Wnt-responsive promoter driving expression of the firefly luciferase gene.
SW480 colon carcinoma cells were transduced with a lentiviral vector expressing luciferase with a human Sp5 promoter consisting of a sequence of eight TCF/LEF binding sites. SW480 cells stably expressing the Sp5-Luc reporter gene and a hygromycin resistance gene were selected by treatment with 150 μg/mL of hygromycin for 7 days. These stably transduced SW480 cells were expanded in cell culture and used for all further screening activities. Each compound was dissolved in DMSO as a 10 mM stock and used to prepare compound source plates. Serial dilution (1:3, 10-point dose-response curves starting from 10 μM) and compound transfer was performed using the ECHO 550 (Labcyte, Sunnyvale, Calif.) into 384-well white solid bottom assay plates (Greiner Bio-One) with appropriate DMSO backfill for a final DMSO concentration of 0.1%. For Sp5-Luc reporter gene assays, the cells were plated at 4,000 cells/well in 384-well plates with medium containing 1% fetal bovine serum and incubated overnight at 37° C. and 5% CO2. Following incubation, 20 μl of BrightGlo luminescence reagent (Promega) was added to each well of the 384-well assay plates. The plates were placed on an orbital shaker for 2 min and then luminescence was quantified using the Envision (Perkin Elmer) plate reader. Readings were normalized to DMSO only treated cells, and normalized activities were utilized for EC50 calculations using the dose-response log (inhibitor) vs. response-variable slope (four parameters) nonlinear regression feature available in GraphPad Prism 5.0 (or Dotmatics). For EC50 of >10 μM, the percent inhibition at 10 μM is provided.

[3] = tested on: IL-6 in human monocyte cell line (THP-1 cells); assay: IL-6 inhibition in LPS-stimulated THP-1 cells (HTRF); details: IL-6 in LPS-stimulated THP-1 cells, HTRF
Experimental: Human monocyte cell line (THP-1 cells; Catalog # TIB-202, ATCC, Manassas, Va.) were cultured in Roswell Park Memorial Institute (RPMI) 1640 Medium (Catalog #21870-100, Buffalo, N.Y.) with 1% L-glutamine, 1% HEPES, 1% Sodium Pyruvate, 2% Sodium Bicarbonate supplemented with 100 units/mL penicillin, 50 μg/mL streptomycin, 2-mercaptoethanol (0.05 mM) [basal medium] and 10% fetal bovine serum (Catalog #16140089, Life Technologies, Carlsbad, Calif.) at 37° C. and 5% CO2.
THP-1 cells were cultured in basal media with 1% FBS for 24 hours before the start of the assay. Each compound was dissolved in DMSO as a 10 mM stock and used to prepare compound source plates. Serial dilution (1:3, 10-point dose-response curves starting from 10 μM) and compound transfer was performed using the ECHO 550 (Labcyte, Sunnyvale, Calif.) into 384-well white low volume assay plates (Greiner Bio-One) with appropriate DMSO backfill for a final DMSO concentration of 0.1%. THP-1 cells were plated at 5000 cells/well in the 384-well plates and incubated at 37° C. for 2 h. 500 ng/mL of LPS was added after 2 hours and cells were incubated for another 22 hours at 37° C. Plates were spun in a centrifuge for 1 minute at […] and a mixture of anti-IL6 XL665, and anti-IL6 Cryptate diluted in reconstitution buffer (Cisbio Inc.) was added to each well. Following incubation for 3 hrs at room temperature, Homogeneous Time-Resolved Fluorescence (HTRF) was measured using the Envision (Perkin Elmer) at 665 nm and […]. The ratio of fluorescence at 665 nm to 620 nm was used as a readout for IL6 quantification. All samples were processed in duplicate. Readings were normalized to DMSO treated cells and normalized activities were utilized for EC50 calculations using the dose-response log (inhibitor) vs. response-variable slope (four parameters) nonlinear regression feature available in GraphPad Prism 5.0 (or Dotmatics). For EC50 of >10 μM, the percent inhibition at 10 μM is provided.

[4] = tested on: Primary human fibroblasts derived from IPF patients (LL29 cells) treated with TGF-β1; assay: Inhibition of the fibrotic process: αSMA staining in TGF-β1 treated fibroblasts; details: Fibroblast, 96 h, LL29 fibroblasts treated with TGF-β1, 4 days
Text: Representative compounds were screened using primary human fibroblasts (derived from IPF patients) treated with TGF-β1 to determine their ability to inhibit the fibrotic process.
Primary human fibroblasts derived from IPF patients (LL29 cells) [^1Xiaoqiu Liu, et. al., “Fibrotic Lung Fibroblasts Show Blunted Inhibition by cAMP Due to Deficient cAMP Response Element-Binding Protein Phosphorylation”, Journal of Pharmacology and Experimental Therapeutics (2005), 315(2), 678-687; ^2Watts, K. L., et. al., “RhoA signaling modulates cyclin D1 expression in human lung fibroblasts; implications for idiopathic pulmonary fibrosis”, Respiratory Research (2006), 7(1), 88] were obtained from American Type Culture Collection (ATCC) and expanded in F12 medium supplemented with 15% Fetal Bovine Serum and Penicillin/Streptomycin.
Each compound was dissolved in DMSO as a 10 mM stock and used to prepare compound source plates. Serial dilution (1:2, 11-point dose-response curves from 10 μM to 1.87 nM) and compound transfer was performed using the ECHO 550 (Labcyte, Sunnyvale, Calif.) into 384-well clear bottom assay plates (Greiner Bio-One) with appropriate DMSO backfill for a final DMSO concentration of 0.1%. LL29 cells are plated at 1,500 cells/well in 80 μL/well F12 medium supplemented with 1% Fetal Bovine Serum. One hour after addition of the cells, TGF-β1 (Peprotech; 20 ng/mL) was added to the plates to induce fibrosis (ref. 1 and 2 above). Wells treated with TGF-β1 and containing DMSO were used as controls. Cells were incubated at 37° C. and 5% CO2 for 4 days. Following incubation for 4 days, SYTOX green nucleic acid stain (Life Technologies [Thermo Fisher Scientific]) was added to the wells at a final concentration of 1 μM and incubated at room temperature for 30 min. Cells were then fixed using 4% formaldehyde (Electron Microscopy Sciences), washed 3 times with PBS followed by blocking and permeabilization using 3% Bovine Serum Albumin (BSA; Sigma) and 0.3% Triton X-100 (Sigma) in PBS. Cells were then stained with antibody specific to α-smooth muscle actin (αSMA; Abcam) (ref. 1 and 2 above) in 3% Bovine Serum Albumin (BSA; Sigma) and 0.3% Triton X-100 (Sigma) in PBS, and incubated overnight at 4° C. Cells were then washed 3 times with PBS, followed by incubation with Alexa Flor-647 conjugated secondary antibody (Life Technologies [Thermo Fisher Scientific]) and DAPI at room temperature for 1 hour. Cells were then washed 3 times with PBS and plates were sealed for imaging. αSMA staining was imaged by excitation at 630 nm and emission at 665 nm and quantified using the Compartmental Analysis program on the CellInsight CX5 (Thermo Scientific). Dead or apoptotic cells were excluded from analysis based on positive SYTOX green staining. % of total cells positive for αSMA were counted in each well and normalized to the average of 11 wells treated with TGF-β1 on the same plate using Dotmatics' Studies Software. The normalized averages (fold change over untreated) of 3 replicate wells for each compound concentration were used to create dose-responses curves and EC50 values were calculated using non-linear regression curve fit in the Dotmatics' Studies Software. For EC50 of >10 μM, the percent inhibition at 10 μM is provided.

EC50 [1]	EC50 [2]	EC50 [3]	Structure (SMILES)	EC50 [4]
1570 nM	1110 nM	38 nM	CN(C)CCNc1cc(F)cc(-c2nccc3[nH]c(-c4n[nH]c5ccc(-c6cncc(OCc7ccccc7)c6)nc45)nc23)c1 [Compound 790, N^1-(3-(2-(5-(5-(Benzyloxy)pyridin-3-yl)-1H-pyrazolo[4,3-b]pyridin-3-yl)-1H-imidazo[4,5-c]pyridin-4-yl)-5-fluorophenyl)-N^2,N^2-dimethylethane-1,2-diamine]	3170 nM
688 nM	36 nM	437 nM	Cc1ncc(-c2ccc3[nH]nc(-c4nc5c(-c6cccc(F)c6)nccc5[nH]4)c3n2)n1C [Compound 509, 5-(1,2-Dimethyl-1H-imidazol-5-yl)-3-(4-(3-fluorophenyl)-1H-imidazo[4,5-c]pyridin-2-yl)-1H-pyrazolo[4,3-b]pyridine]	202 nM
6550 nM	1880 nM	3910 nM	Cc1ncc(-c2ccc3[nH]nc(-c4nc5c(-c6cc(F)cc(NCCN(C)C)c6)nccc5[nH]4)c3n2)n1C [Compound 781, N^1-(3-(2-(5-(1,2-Dimethyl-1H-imidazol-5-yl)-1H-pyrazolo[4,3-b]pyridin-3-yl)-1H-imidazo[4,5-c]pyridin-4-yl)-5-fluorophenyl)-N^2,N^2-dimethylethane-1,2-diamine]	3100 nM

Further lines, the compound ahead of its results:

Structure (SMILES)	EC50 [1]	EC50 [2]	EC50 [3]	EC50 [4]
c1csc(-c2nccc3[nH]c(-c4n[nH]c5ccc(-c6ccncc6)nc45)nc23)c1 [Compound 354, 5-(Pyridin-4-yl)-3-(4-(thiophen-2-yl)-1H-imidazo[4,5-c]pyridin-2-yl)-1H-pyrazolo[4,3-b]pyridine]	1050 nM	1070 nM	9100 nM	792 nM
CN(C)CCNc1cc(F)cc(-c2nccc3[nH]c(-c4n[nH]c5ccc(-c6cncc(CNCC7CCCC7)c6)nc45)nc23)c1 [Compound 473, N^1-(3-(2-(5-(5-(((Cyclopentylmethyl)amino)methyl)pyridin-3-yl)-1H-pyrazolo[4,3-b]pyridin-3-yl)-1H-imidazo[4,5-c]pyridin-4-yl)-5-fluorophenyl)-N^2,N^2-dimethylethane-1,2-diamine]	8370 nM	4410 nM	4660 nM	5060 nM
CN1CCN(c2nccc3[nH]c(-c4n[nH]c5ccc(-c6cncc(OCc7ccccc7)c6)nc45)nc23)CC1 [Compound 646, 5-(5-(Benzyloxy)pyridin-3-yl)-3-(4-(4-methylpiperazin-1-yl)-1H-imidazo[4,5-c]pyridin-2-yl)-1H-pyrazolo[4,3-b]pyridine]	3130 nM	3850 nM	1490 nM	3980 nM
C1=C(c2ccc3[nH]nc(-c4nc5c(-c6ccc7c(c6)OCO7)nccc5[nH]4)c3n2)CCNC1 [Compound 1109, 3-(4-(Benzo[d][1,3]dioxol-5-yl)-1H-imidazo[4,5-c]pyridin-2-yl)-5-(1,2,3,6-tetrahydropyridin-4-yl)-1H-pyrazolo[4,3-b]pyridine]	3410 nM	652 nM	154 nM	3850 nM
CN1CCN(c2nccc3[nH]c(-c4n[nH]c5ccc(-c6cncc(OC7CCCCC7)c6)nc45)nc23)CC1 [Compound 639, 5-(5-(Cyclohexyloxy)pyridin-3-yl)-3-(4-(4-methylpiperazin-1-yl)-1H-imidazo[4,5-c]pyridin-2-yl)-1H-pyrazolo[4,3-b]pyridine]	2420 nM	2670 nM	3420 nM	2610 nM
FC1(F)CCN(Cc2cncc(-c3ccc4[nH]nc(-c5nc6c(N7CCCCC7)nccc6[nH]5)c4n3)c2)C1 [Compound 194, 5-(5-((3,3-Difluoropyrrolidin-1-yl)methyl)pyridin-3-yl)-3-(4-(piperidin-1-yl)-1H-imidazo[4,5-c]pyridin-2-yl)-1H-pyrazolo[4,3-b]pyridine]	1960 nM	3390 nM	2490 nM	2240 nM
COc1cncc(-c2ccc3[nH]nc(-c4nc5c(N6CCCCC6)nccc5[nH]4)c3n2)c1 [Compound 612, 5-(5-Methoxypyridin-3-yl)-3-(4-(piperidin-1-yl)-1H-imidazo[4,5-c]pyridin-2-yl)-1H-pyrazolo[4,3-b]pyridine]	3990 nM	3230 nM	3810 nM	2920 nM
